Source: US20140179518A1, “Pesticidal Mixtures Comprising Cyanosulfoximine Compounds” (BASF SE, priority 2007, published 2014)
Read-outs that look alike come from different tables or passages of the source.

Assays:
Type in all cases: cell-based
Details in all cases: single active
[1] = system: Septoria tritici; assay: Activity against leaf blotch on wheat caused by Septoria tritici (Septtr), microtiter plate
[2] = system: Botrytis cinerea; assay: Activity against the grey mold Botrytis cinerea in the microtiterplate test (Botrci)
[3] = system: Phytophthora infestans
[4] = system: Pyricularia oryzae
[5] = 4 ppm, 405 nm, 7 days after inoculation
[6] = 63 ppm, 405 nm, 7 days after inoculation

Compound: COC=C(C(=O)OC)c1ccccc1COc1cccc(C(F)(F)F)n1 [Picoxystrobin, methyl 3-methoxy-2-[2-(6-trifluoromethylpyridin-2-yloxymethyl)phenyl]acrylate]
- Observed efficacy ([1]; 0.063 ppm, 7 days): 63%

Compound: Fc1ccc([C@]2(Cn3cncn3)O[C@H]2c2ccccc2Cl)cc1 (racemic) [Epoxiconazol, (2RS,3SR)-1-[3-(2-chlorophenyl)-2,3-epoxy-2-(4-fluorophenyl)propyl]-1H-1,2,4-triazole]
- Observed efficacy ([2]; 0.063 ppm, 7 days): 3%
- Observed efficacy ([1]; 0.063 ppm, 7 days): 68%

Compound: N#CN=S1(=O)CCCC1Cc1ccc(Cl)nc1 (centres unmarked) [C.I.5]
- Observed efficacy ([2]; 16 ppm, 7 days): 0%
- Observed efficacy ([3]; 1 ppm, 7 days): 0%
- Observed efficacy ([4]; 16 ppm, 7 days): 3%
- Observed efficacy ([1]; 0.25 ppm, 7 days): 0%
- Observed efficacy [1, 5]: 2%

Compound: N#Cc1sc2c(=O)c3ccccc3c(=O)c=2sc1C#N [Dithianon, 5,10-dioxo-5,10-dihydronaphtho[2,3-b][1,4]dithiin-2,3-dicarbonitrile]
- Observed efficacy ([2]; 0.25 ppm, 7 days): 12%

Compound: CO/N=C(/C1=NOCCO1)c1ccccc1Oc1ncnc(Oc2ccccc2Cl)c1F [Fluoxastrobin, (E)-{2-[6-(2-chlorophenoxy)-5-fluoropyrimidin-4-yloxy]phenyl}(5,6-dihydro-1,4,2-dioxazin-3-yl)methanone O-methyloxime]
- Observed efficacy ([1]; 0.016 ppm, 7 days): 15%

Compound: CCNC(=O)NC(=O)C(C#N)=NOC [Cymoxanil, 1-(2-cyano-2-methoxyiminoacetyl)-3-ethylurea]
- Observed efficacy [2, 6]: 17%
- Observed efficacy ([3]; 0.25 ppm, 405 nm, 7 days after inoculation): 32%
- Observed efficacy [4, 6]: 8%

Compound: CC(C)(C)C(O)(CCc1ccc(Cl)cc1)Cn1cncn1 (centres unmarked) [Tebuconazol, 1-(4-chlorophenyl)-4,4-dimethyl-3-[1,2,4]triazol-1-ylmethylpentan-3-ol]
- Observed efficacy ([1]; 0.25 ppm, 7 days): 67%

Compound: CC(c1ccc(C(F)(F)F)nc1)S(C)(=O)=NC#N (centres unmarked) [C.I.10]
- Observed efficacy ([2]; 4 ppm, 7 days): 3%
- Observed efficacy ([3]; 1 ppm, 7 days): 0%
- Observed efficacy ([1]; 1 ppm, 7 days): 0%
- Observed efficacy [1, 5]: 2%

Compound: CC(C)OC(=O)N[C@H](C(=O)N[C@H](C)c1nc2ccc(F)cc2s1)C(C)C [Benthivalicarb, isopropyl {(S)-1-[(1R)-1-(6-fluorobenzothiazol-2-yl)-ethylcarbamoyl]-2-methylpropyl}carbamate]
- Observed efficacy ([3]; 0.063 ppm, 7 days): 65%

Compound: Fc1ccc(Oc2ccnc3cc(Cl)cc(Cl)c23)cc1 [Quinoxyfen, 5,7-dichloro-4-(4-fluorophenoxy)quinoline]
- Observed efficacy ([4]; 16 ppm, 7 days): 4%
